In series [1] the target is DNA topoisomerase 2-alpha (Homo sapiens) (UniProt P11388). In words: Binding affinity to nuclear export signal of topoisomerase 2alpha in human Flow 2000 cells assessed as potentiation of doxorubicin-induced apoptosis by measuring increase in cleaved caspase-3 levels at 25 uM pre-incubated for 20 hrs followed by addition of doxorubicin for 4 hrs. It is filed as cell-based.

Series [2] shares this target. As to the kind of experiment: Binding affinity to nuclear export signal of topoisomerase 2alpha in human U266 cells assessed as potentiation of doxorubicin-induced apoptosis by measuring increase in cleaved caspase-3 levels at 25 uM pre-incubated for 20 hrs followed by addition of doxorubicin for 4 hrs. It is filed as cell-based.
A further series concerns NCI-H929. In words: Induction of apoptosis in human NCI-H929 cells assessed as increase in cleaved caspase-3 levels at 25 uM incubated for 20 hrs. It is filed as functional, cell-based.
Series [3] has as its target DNA topoisomerase II (Homo sapiens) (UniProt P11388+Q02880). In words: Inhibition of decatenation activity of human topoisomerase 2 using kinetoplast DNA up to 50 uM incubated for 30 mins by agarose gel electrophoresis. The series is classed as protein assay.
Series [4] concerns RPMI-8226. In words: Induction of apoptosis in human RPMI8226 cells assessed as increase in cleaved caspase-3 levels at 25 uM incubated for 20 hrs. It is filed as functional, cell-based.
In series [5] the target is DNA topoisomerase 2-alpha (Homo sapiens) (UniProt P11388). In words: Binding affinity to nuclear export signal of topoisomerase 2alpha in human RPMI8226 cells assessed as potentiation of doxorubicin-induced apoptosis by measuring increase in cleaved caspase-3 levels at 25 uM pre-incubated for 20 hrs followed by addition of doxorubicin for 4 hrs. The series is classed as cell-based.

Series [6] has as its system RPMI-8226. As to the kind of experiment: Effect on Top2alpha protein levels in human RPMI8226 cells at 25 uM incubated for 20 hrs by Western blot analysis. The series is classed as cell-based. The note with it: rpmi-8226, 20 h.
In series [7] the target is DNA topoisomerase 2-alpha (Homo sapiens) (UniProt P11388). In words: Binding affinity to nuclear export signal of topoisomerase 2alpha in human NCI-H929 cells assessed as potentiation of doxorubicin-induced apoptosis by measuring increase in cleaved caspase-3 levels at 25 uM pre-incubated for 20 hrs followed by addition of doxorubicin for 4 hrs. It is filed as cell-based.

Series [8] has the same target. As to the kind of experiment: Binding affinity to nuclear export signal of topoisomerase 2alpha in human MCF7 cells assessed as potentiation of doxorubicin-induced apoptosis by measuring increase in cleaved caspase-3 levels at 25 uM pre-incubated for 20 hrs followed by addition of doxorubicin for 4 hrs. The series is classed as cell-based.
The target is the same in series [9]. As to the kind of experiment: Binding affinity to nuclear export signal of topoisomerase 2alpha in human HL60 cells assessed as potentiation of doxorubicin-induced apoptosis by measuring increase in cleaved caspase-3 levels at 25 uM pre-incubated for 20 hrs followed by addition of doxorubicin for 4 hrs. The series is classed as cell-based.
For series [10] the target is unchanged. As to the kind of experiment: Inhibition of nuclear export signal of topoisomerase 2alpha in human NCI-H929 cells assessed as reduction in Top2alpha binding to CRM1 at 25 uM incubated for 20 hrs by Western blot analysis and co-immunoprecipitation analysis. The series is classed as cell-based.
Series [11] addresses Cellular tumor antigen p53 (Homo sapiens) (UniProt P04637). In words: Inhibition of p53 nuclear export in human NCI-H929 cells at 25 uM incubated for 20 hrs by Western blot analysis. The series is classed as cell-based. (In general: A western blot detects proteins with antibodies after separation by electrophoresis.)
Series [12] addresses DNA topoisomerase 2-alpha (Homo sapiens) (UniProt P11388). In words: Inhibition of nuclear export signal of topoisomerase 2alpha in human NCI-H929 cells assessed as reduction in cytoplasmic localization of Top2alpha at 100 uM incubated for 24 hrs by Western blot analysis. The series is classed as cell-based.
Series [13] shares this target. In words: Binding affinity to nuclear export signal of topoisomerase 2alpha in human KG1a cells assessed as potentiation of doxorubicin-induced apoptosis by measuring increase in cleaved caspase-3 levels at 25 uM pre-incubated for 20 hrs followed by addition of doxorubicin for 4 hrs. The series is classed as cell-based.
For series [14] the target is unchanged. In words: Inhibition of nuclear export signal of topoisomerase 2alpha in human NCI-H929 cells assessed as increase in nuclear localization of Top2alpha at 50 uM incubated for 2 hrs by Western blot analysis. It is filed as cell-based.
The target is the same in series [15]. As to the kind of experiment: Binding affinity to nuclear export signal of topoisomerase 2alpha in human PBMC cells assessed as potentiation of doxorubicin-induced apoptosis by measuring increase in cleaved caspase-3 levels at 25 uM pre-incubated for 20 hrs followed by addition of doxorubicin for 4 hrs. The series is classed as cell-based.
For series [16] the target is unchanged. In words: Binding affinity to nuclear export signal of topoisomerase 2alpha in human WI38 cells assessed as potentiation of doxorubicin-induced apoptosis by measuring increase in cleaved caspase-3 levels at 25 uM pre-incubated for 20 hrs followed by addition of doxorubicin for 4 hrs. It is filed as cell-based.
The next series relates to U-266. As to the kind of experiment: Induction of apoptosis in human U266 cells assessed as increase in cleaved caspase-3 levels at 25 uM incubated for 20 hrs. It is filed as functional, cell-based.
The target of series [17] is Exportin-1 (Homo sapiens) (UniProt O14980). In words: Inhibition of CRM1 in human NCI-H929 cells assessed as increase in nuclear localization of Top2alpha at 50 uM incubated for 2 hrs by Western blot analysis. The series is classed as cell-based.
Chain of Exportin-1 (Homo sapiens) (O14980 whole entry): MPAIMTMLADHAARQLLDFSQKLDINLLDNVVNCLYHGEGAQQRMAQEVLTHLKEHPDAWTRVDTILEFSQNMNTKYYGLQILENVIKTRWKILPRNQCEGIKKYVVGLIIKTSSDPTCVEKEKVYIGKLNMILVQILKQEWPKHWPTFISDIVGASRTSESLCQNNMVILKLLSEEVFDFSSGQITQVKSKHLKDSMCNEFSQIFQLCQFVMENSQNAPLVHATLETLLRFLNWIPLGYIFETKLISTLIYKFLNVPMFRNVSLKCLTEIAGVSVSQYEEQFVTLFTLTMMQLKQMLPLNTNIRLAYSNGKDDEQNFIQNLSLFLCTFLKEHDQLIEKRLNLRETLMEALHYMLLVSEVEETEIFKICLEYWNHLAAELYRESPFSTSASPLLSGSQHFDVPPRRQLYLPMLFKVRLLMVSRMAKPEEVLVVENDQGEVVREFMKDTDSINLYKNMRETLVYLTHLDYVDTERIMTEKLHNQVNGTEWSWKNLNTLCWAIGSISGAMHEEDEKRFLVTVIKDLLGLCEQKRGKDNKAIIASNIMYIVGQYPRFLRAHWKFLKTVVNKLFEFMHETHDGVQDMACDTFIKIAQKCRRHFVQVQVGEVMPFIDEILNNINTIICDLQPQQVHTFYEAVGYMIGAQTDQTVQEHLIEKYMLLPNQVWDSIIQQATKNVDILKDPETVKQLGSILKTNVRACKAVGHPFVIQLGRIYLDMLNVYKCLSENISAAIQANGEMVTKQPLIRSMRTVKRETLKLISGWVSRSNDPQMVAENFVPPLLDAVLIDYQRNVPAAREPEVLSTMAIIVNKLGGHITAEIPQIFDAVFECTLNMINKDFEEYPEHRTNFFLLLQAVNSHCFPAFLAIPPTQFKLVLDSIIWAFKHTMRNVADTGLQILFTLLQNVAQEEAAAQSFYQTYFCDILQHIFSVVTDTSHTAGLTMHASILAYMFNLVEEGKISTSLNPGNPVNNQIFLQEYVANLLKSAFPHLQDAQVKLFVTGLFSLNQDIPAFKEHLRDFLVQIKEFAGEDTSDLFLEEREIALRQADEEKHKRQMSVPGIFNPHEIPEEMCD

Molecules are shown by their SMILES. Calls of active or inactive are those of the source. The calls are words filed in the database; no cut-off is given here.

Chain of DNA topoisomerase 2-alpha (Homo sapiens) (P11388 whole entry): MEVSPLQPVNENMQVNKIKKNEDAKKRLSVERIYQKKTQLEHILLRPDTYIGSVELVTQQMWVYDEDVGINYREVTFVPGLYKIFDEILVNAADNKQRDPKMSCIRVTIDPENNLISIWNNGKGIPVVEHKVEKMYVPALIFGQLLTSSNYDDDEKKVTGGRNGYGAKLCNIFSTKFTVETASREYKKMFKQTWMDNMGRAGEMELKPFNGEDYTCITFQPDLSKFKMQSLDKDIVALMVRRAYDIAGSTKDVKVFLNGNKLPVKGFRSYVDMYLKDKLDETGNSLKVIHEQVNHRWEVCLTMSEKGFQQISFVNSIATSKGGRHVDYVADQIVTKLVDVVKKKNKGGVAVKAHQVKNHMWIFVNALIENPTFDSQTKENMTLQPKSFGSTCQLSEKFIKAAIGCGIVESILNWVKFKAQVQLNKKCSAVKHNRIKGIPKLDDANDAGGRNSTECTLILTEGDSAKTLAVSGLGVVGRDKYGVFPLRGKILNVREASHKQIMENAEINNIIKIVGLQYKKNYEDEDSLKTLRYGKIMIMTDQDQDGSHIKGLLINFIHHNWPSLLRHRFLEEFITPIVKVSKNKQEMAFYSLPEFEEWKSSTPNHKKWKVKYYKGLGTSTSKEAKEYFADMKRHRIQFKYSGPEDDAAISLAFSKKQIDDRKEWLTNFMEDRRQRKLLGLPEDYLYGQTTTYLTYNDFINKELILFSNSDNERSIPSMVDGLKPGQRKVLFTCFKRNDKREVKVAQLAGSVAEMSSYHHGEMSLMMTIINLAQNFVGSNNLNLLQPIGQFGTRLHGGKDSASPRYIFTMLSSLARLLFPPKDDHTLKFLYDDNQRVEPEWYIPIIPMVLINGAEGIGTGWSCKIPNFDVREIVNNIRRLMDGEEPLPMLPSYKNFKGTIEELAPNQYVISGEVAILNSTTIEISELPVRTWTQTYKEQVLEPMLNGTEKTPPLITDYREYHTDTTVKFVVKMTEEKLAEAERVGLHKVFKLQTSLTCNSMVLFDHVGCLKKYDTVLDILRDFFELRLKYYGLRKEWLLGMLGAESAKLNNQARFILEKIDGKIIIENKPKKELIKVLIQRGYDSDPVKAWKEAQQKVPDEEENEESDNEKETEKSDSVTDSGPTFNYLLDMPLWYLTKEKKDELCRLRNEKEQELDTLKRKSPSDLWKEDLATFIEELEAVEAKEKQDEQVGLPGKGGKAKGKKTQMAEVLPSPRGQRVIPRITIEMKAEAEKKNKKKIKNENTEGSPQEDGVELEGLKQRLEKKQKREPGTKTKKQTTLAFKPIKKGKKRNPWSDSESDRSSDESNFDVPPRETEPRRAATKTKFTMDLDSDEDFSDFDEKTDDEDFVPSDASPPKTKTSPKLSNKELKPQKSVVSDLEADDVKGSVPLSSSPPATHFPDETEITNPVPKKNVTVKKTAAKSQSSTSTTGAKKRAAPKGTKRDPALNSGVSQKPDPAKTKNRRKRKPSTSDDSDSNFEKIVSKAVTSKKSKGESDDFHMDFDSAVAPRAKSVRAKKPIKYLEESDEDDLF
Chain of Cellular tumor antigen p53 (Homo sapiens) (P04637 whole entry, looked up): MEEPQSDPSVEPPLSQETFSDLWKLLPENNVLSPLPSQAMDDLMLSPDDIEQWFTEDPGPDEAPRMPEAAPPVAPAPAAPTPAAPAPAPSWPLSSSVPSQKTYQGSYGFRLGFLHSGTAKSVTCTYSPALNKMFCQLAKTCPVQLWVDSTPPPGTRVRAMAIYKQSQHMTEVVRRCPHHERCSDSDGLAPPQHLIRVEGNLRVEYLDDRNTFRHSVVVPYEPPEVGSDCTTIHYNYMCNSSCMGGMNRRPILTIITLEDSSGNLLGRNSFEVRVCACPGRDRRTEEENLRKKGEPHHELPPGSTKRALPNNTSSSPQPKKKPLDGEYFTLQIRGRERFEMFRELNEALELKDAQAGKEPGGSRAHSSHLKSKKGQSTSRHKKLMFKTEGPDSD

`O=C1c2ccccc2C(=O)C1C(=O)C(c1ccccc1)c1ccccc1` [DIPHENADIONE]: the inhibition result in [1], in [3], in [9], in series [11], in series [13] and in series [15] was “inactive” in each case. The inhibition result in series [16] was “inactive”. The result in series [2], in [5] and in series [7] was Active. Besides, the result in the series on NCI-H929, in the series on RPMI-8226 [4] and with U-266 was inactive. The Activity entry in the series with RPMI-8226 [6] is listed as “Non-Toxic”. The inhibition result in [8], in series [10], in series [12] and in [14] was “Active” each time.
Consider `C/C=C/[C@@H]1O[C@H]([C@H](O)/C=C/C=C/C[C@@H](C)/C=C(\C=C\[C@H]2CC=CC(=O)O2)CC)C[C@@H](O)[C@@H]1C`, for which the inhibition entry in [17] was “Active”.
On to `Brc1ccc(C[N+]23CN4CN(CN(C4)C2)C3)cc1`, for which the inhibition entry in series [1], in [3], in series [9], in series [13], in series [15] and in [16] was “inactive” each time. The outcome in series [2], in series [5] and in series [7] was Active. Besides, the result in the series on NCI-H929, in the series with RPMI-8226 [4] and with U-266 was inactive. Moreover, the Activity entry in the series with RPMI-8226 [6] is “Non-Toxic”. In addition, the inhibition entry in series [8], in series [11] and in series [12] was “Active” each time.
For the molecule `C1CN2C(=N1)N1CCN=C1N1CCN=C21`, the outcome in series [2], in series [5] and in series [7] was Active. Further, the result with NCI-H929, in the series on RPMI-8226 [4] and in the series on U-266 was inactive.
For the molecule `O=C(C[N+]12CN3CN(CN(C3)C1)C2)c1ccc(Br)cc1`, the inhibition result in series [12] is “inactive”.
On to `O=C(Nc1ccc(C2=NCCN2)cc1)c1ccc(C(=O)Nc2ccc(C3=NCCN3)cc2)c([N+](=O)[O-])c1`, for which the inhibition entry in [1], in series [3], in [9], in series [11], in series [13] and in series [15] was “inactive” throughout. Besides, the inhibition result in series [16] is “inactive”. Also, the result in series [2], in [5] and in series [7] was Active. The result in the series with NCI-H929, with RPMI-8226 [4] and with U-266 was inactive. In the series with RPMI-8226 [6], the Activity result was “Non-Toxic”. Further, the inhibition entry in series [8] and in [12] was “Active” each time.
Turning to `c1ccc(C2NNC(c3ccccc3)NN2)cc1` (stereo unspecified), the result in [2], in series [5] and in series [7] was Active. Also, the outcome in the series on NCI-H929, in the series on RPMI-8226 [4] and with U-266 was inactive.
For the molecule `COCN1CCC2N(COC)CCC3N(COC)CCC1N23` (stereo unspecified), the outcome in [2], in [5] and in [7] was Active. Also, the result with NCI-H929, with RPMI-8226 [4] and with U-266 was inactive.
Consider `Clc1cc(Cl)c(C[N+]23CN4CN(CN(C4)C2)C3)cc1Cl`, for which the inhibition result in [1], in series [3], in [9], in series [11], in series [12] and in series [13] was “inactive” throughout. Besides, the inhibition result in series [15] and in [16] was “inactive” each time. In addition, the result in [2], in series [5] and in series [7] was Active. Besides, the result in the series with NCI-H929, in the series on RPMI-8226 [4] and in the series on U-266 was inactive. In addition, in the series on RPMI-8226 [6], the Activity result is given as “Non-Toxic”. The inhibition result in series [8] is “Active”.

These data come from ChEMBL document CHEMBL4421723, “Novel drug targets to overcome de novo drug-resistance in multiple myeloma” (2013).
